Measurements reported in patent US7534818B1 (priority 2003, dated 2009).

Experiments:
normal rats = test: Identification of non-toxic doses of MSC (survival, weight loss) in normal rats; assay type: in vivo, adult Fisher rats; settings: for animals surviving treatment: 21 days
Experimental: This example describes the identification of non-toxic doses for the use of selenium. To illustrate this embodiment, different groups of adult Fisher rats were administered various doses of selenium for 21 days and survival of rats was monitored. Each group had 6 rats and each exempt group was repeated 3-4 times. […] Thus, for evaluation of the protective effect of MSC against chemotherapy induced toxicity, the dose and schedule of MSC used was 0.75 mg/rat/d up to 21 days orally.
Bladders were removed and fixed in formalin.

rat bladder = settings: MSC 0.75 mg/rat/d orally; for bladder histology (hemorrhage): 24 hrs after cyclophosphamide 150 mg/kg×1 i.v., first dose 14 days before, hematoxylin-eosin sections, FIG. 2
Source text: Bladders were removed and fixed in formalin. Paraffin embedded sections were obtained and stained by hematoxylin-eosin staining by standard methods.

[1] = tested on: human squamous cell carcinoma of head and neck tumor xenografts (A253); test: Anti-tumor activity in A253 xenografts; assay type: in vivo; settings: A253 xenografts in nude mice; cyclophosphamide 100 mg/kg×1, i.v., alone or in combination with MSC
rats = settings: days 30 and 45 after cyclophosphamide 100 mg/kg i.v.×1; MSC 0.75 mg/rat/d×21, first dose 14 days before; FIG. 4
Experimental: Regrowth of hair was assessed at 30, 45 and 90 days post initiation of cyciophosphamide treatment.

[2] = up to 0.75 mg/rat/d×21 MSC, adult Fisher rats

C[Se]C[C@H](N)C(=O)O [MSC, 5-methylselenocysteine] showed a weight loss (normal rats; 0.75 mg/rat/d MSC orally up to 21 days, Fisher rats 120-180 g, stated as less than 10% of total body weight) of 7.4±2.4, an animals surviving treatment (normal rats; 1 mg MSC dose, adult Fisher rats) of 75% and an animals surviving treatment (normal rats; 1.25 mg MSC dose, adult Fisher rats) of 0%. The lethality (normal rats; [2]) was “no lethality”, the toxicity (normal rats; [2]) was “not toxic” and the weight loss (normal rats; [2]) was “less than 5%”. For the same compound, the “bladder histology (hemorrhage)” value (rat bladder) was “no change”.
With O=P1(N(CCCl)CCCl)NCCCO1 (centres unmarked) [cyclophosphamide] the Tumor growth inhibition [1] was 35%, the “regrowth of hair (alopecia)” value (rats) was “only partial recovery” and the bladder mucosal edema (rat bladder; 4 hrs after cyclophosphamide 150 mg/kg×1 i.v., FIG. 3) was “acute mucosal edema”. The “bladder histology (hemorrhage)” value (rat bladder) was “severe hemorrhagic cystitis”.
